Laboratory results from patent publication US20250313533A1, “QUINOLINE CARBOXYLIC ACID ESTER COMPOUND AND PREPARATION METHOD AND USE THEREOF” (priority 2019, published 2025).

Legend:
[1] = tested on: soft rot in Chinese cabbages; assay: whole plant or invertebrate; settings: 48 h, read-out: efficacy against soft rot in Chinese cabbages
[2] = tested on: stem rot in sweet potatoes; assay: whole plant or invertebrate; settings: read-out: efficacy against stem rot in sweet potatoes
[3] = tested on: pathogenic bacteria causing bacterial angular leaf spot in cucumbers; assay: In vitro bactericidal activity, bacterial angular leaf spot in cucumbers; type: cell-based, pseudomonas; settings: read-out: inhibitory rate; for inhibition at 1 ppm: dosage 1 ppm; for inhibition at 5 ppm: dosage 5 ppm
Protocol: (§1) Under aseptic conditions, equal amounts of NB culture medium were added to test tubes, and fixed amounts of the sample solutions were pipetted into the above test tubes in an ascending order of concentrations, respectively. The mixtures were well mixed and added with equal amounts of a bacterial suspension in log phase.
(§2) Each step of the procedure was repeated 4 times. After mixing, the mixture samples were incubated in the dark in a shaking incubator at 25° C. The OD values were measured when the bacteria were in log phase.

[4] = tested on: pathogenic bacteria causing fire blight in pears; assay: In vitro bactericidal activity, fire blight in pears; type: cell-based, erwinia; settings: Erwinia, read-out: inhibitory rate; for inhibition at 1 ppm: dosage 1 ppm; for inhibition at 5 ppm: dosage 5 ppm
Protocol: as §1, §2

[5] = tested on: pathogenic bacteria causing black shank in potatoes; assay: In vitro bactericidal activity, black shank in potatoes; type: cell-based; settings: read-out: inhibitory rate; for inhibition at 1 ppm: dosage 1 ppm; for inhibition at 5 ppm: dosage 5 ppm
Protocol: as §1, §2

[6] = tested on: pathogenic bacteria causing stem rot in sweet potatoes; assay: In vitro bactericidal activity, stem rot in sweet potatoes; type: cell-based, dikia; settings: read-out: inhibitory rate; for inhibition at 1 ppm: dosage 1 ppm; for inhibition at 5 ppm: dosage 5 ppm
Protocol: as §1, §2

[7] = tested on: fruit blotch in watermelons; assay: whole plant or invertebrate; settings: read-out: efficacy against fruit blotch in watermelons
[8] = tested on: pathogenic bacteria causing bacterial blight in rice; assay: whole plant or invertebrate; type: cell-based, xanthomonas; settings: read-out: inhibitory rate
[9] = tested on: pathogenic bacteria causing bacterial wilt in cassava; assay: organism not typed; type: cell-based; settings: read-out: inhibitory rate
cucumber seedlings = assay: Safety for plant growth after application; type: in vivo; settings: dosage 200 ppm
Source text: Taking indoor potted cucumber seedlings as an example, the influence of the compound disclosed herein on growth rate of plant height, chlorophyll content, leaf area, etc. of crops was mainly evaluated.
The results of safety and health-care effect of the compounds of the present disclosure on cucumber seedlings are shown in the following table 1: […]

[10] = tested on: pathogenic bacteria causing bacterial wilt in tobacco; assay: whole plant or invertebrate; type: cell-based, ralstonia; settings: read-out: inhibitory rate
[11] = tested on: bacterial wilt in tobacco; assay: whole plant or invertebrate; settings: Nicotiana tabacum, read-out: efficacy against bacterial wilt in tobacco
black shank in potatoes = assay: Living crops in vivo protective activity, potatoes (root irrigation); settings: Solanum tuberosum, read-out: efficacy against black shank in potatoes; for pest or weed control at 5 ppm: dosage 5 ppm; for pest or weed control at 10 ppm: dosage 10 ppm
Protocol: Root irrigation was carried out on the potatoes for tests according to the designed concentration of the agents. The dosage for each plant was 200 mL and was kept consistent (also for the control). The black shank bacteria were inoculated on the second day after the application. The results were investigated according to the disease condition.

[12] = tested on: pathogenic bacteria causing fruit blotch in watermelons; assay: In vitro bactericidal activity, fruit blotch in watermelons; type: cell-based, acidovorax; settings: read-out: inhibitory rate; for inhibition at 1 ppm: dosage 1 ppm; for inhibition at 5 ppm: dosage 5 ppm
Protocol: as §1, §2

[13] = tested on: pathogenic bacteria causing black rot in Chinese cabbages; assay: In vitro bactericidal activity, black rot in Chinese cabbages; type: cell-based, xanthomonas; settings: Xanthomonas, read-out: inhibitory rate; for inhibition at 1 ppm: dosage 1 ppm; for inhibition at 5 ppm: dosage 5 ppm
Protocol: as §1, §2

bacterial blight in rice = assay: whole plant or invertebrate; settings: Oryza sativa, read-out: efficacy against bacterial blight in rice

SMILES	pest or weed control at 5 ppm [1] [%]	pest or weed control at 10 ppm [1] [%]	pest or weed control at 5 ppm [2] [%]	pest or weed control at 10 ppm [2] [%]	inhibition at 1 ppm [3] [%]	inhibition at 5 ppm [3] [%]	inhibition at 1 ppm [4] [%]	inhibition at 5 ppm [4] [%]	inhibition at 1 ppm [5] [%]	inhibition at 5 ppm [5] [%]	inhibition at 1 ppm [6] [%]	inhibition at 5 ppm [6] [%]	pest or weed control at 5 ppm [7] [%]	pest or weed control at 10 ppm [7] [%]	inhibition at 1 ppm [8] [%]	inhibition at 5 ppm [8] [%]	inhibition at 1 ppm [9] [%]	inhibition at 5 ppm [9] [%]	safety for plant growth (discoloration, necrosis, wilt, malformation) (cucumber seedlings)	inhibition at 1 ppm [10] [%]	also measured
CSc1cc2c(cc1F)c(=O)c(C(=O)OCCO)cn2C1CC1 [Compound 371]	≥ 90	≥ 90	≥ 90	≥ 90	≥ 90	≥ 90	≥ 90	≥ 90	≥ 90	≥ 90	≥ 90	≥ 90	≥ 90	≥ 90	≥ 90	≥ 90	≥ 90	≥ 90	safe for plant growth	≥ 90	inhibition at 5 ppm [10]: ≥ 90%; pest or weed control at 5 ppm [11]: ≥ 90%; pest or weed control at 10 ppm [11]: ≥ 90%; pest or weed control at 5 ppm (black shank in potatoes): ≥ 90%; pest or weed control at 10 ppm (black shank in potatoes): ≥ 90%; inhibition at 1 ppm [12]: ≥ 90%; inhibition at 5 ppm [12]: ≥ 90%; inhibition at 1 ppm [13]: ≥ 90%; inhibition at 5 ppm [13]: ≥ 90%; pest or weed control at 5 ppm (bacterial blight in rice): ≥ 90%; pest or weed control at 10 ppm (bacterial blight in rice): ≥ 90%
COCCOC(=O)c1cn(C2CC2)c2cc(SC)c(F)cc2c1=O [Compound 381, 2-methoxyethyl 1-cyclopropyl-6-fluoro-7-methylthio-4-oxo-1,4-dihydroquinoline-3-carboxylate]	≥ 90	≥ 90	≥ 90	≥ 90	≥ 90	≥ 90	≥ 90	≥ 90	≥ 90	≥ 90	≥ 90	≥ 90	≥ 90	≥ 90	≥ 90	≥ 90	≥ 90	≥ 90	safe for plant growth	≥ 90	inhibition at 5 ppm [10]: ≥ 90%; pest or weed control at 5 ppm [11]: ≥ 90%; pest or weed control at 10 ppm [11]: ≥ 90%; pest or weed control at 5 ppm (black shank in potatoes): ≥ 90%; pest or weed control at 10 ppm (black shank in potatoes): ≥ 90%; inhibition at 1 ppm [12]: ≥ 90%; inhibition at 5 ppm [12]: ≥ 90%; inhibition at 1 ppm [13]: ≥ 90%; inhibition at 5 ppm [13]: ≥ 90%; pest or weed control at 5 ppm (bacterial blight in rice): ≥ 90%; pest or weed control at 10 ppm (bacterial blight in rice): ≥ 90%
O=C(OCCO)c1cn(C2CC2)c2cc(F)ccc2c1=O [Compound 194]	≥ 80	≥ 90	≥ 90	≥ 90	≥ 80	≥ 90	≥ 80	≥ 90	≥ 80	≥ 90	≥ 80	≥ 90	≥ 90	≥ 90	≥ 80	≥ 90	≥ 80	≥ 90	safe for plant growth	≥ 80	inhibition at 5 ppm [10]: ≥ 90%; pest or weed control at 5 ppm [11]: ≥ 90%; pest or weed control at 10 ppm [11]: ≥ 90%; pest or weed control at 5 ppm (black shank in potatoes): ≥ 80%; pest or weed control at 10 ppm (black shank in potatoes): ≥ 90%; inhibition at 1 ppm [12]: ≥ 80%; inhibition at 5 ppm [12]: ≥ 90%; inhibition at 1 ppm [13]: ≥ 80%; inhibition at 5 ppm [13]: ≥ 90%; pest or weed control at 5 ppm (bacterial blight in rice): ≥ 80%; pest or weed control at 10 ppm (bacterial blight in rice): ≥ 90%
CCOCOC(=O)c1cn(C2CC2)c2cc(OCC)c(F)cc2c1=O [Compound 312]	≥ 90	≥ 90	≥ 90	≥ 90	≥ 90	≥ 90	≥ 90	≥ 90	≥ 90	≥ 90	≥ 90	≥ 90	≥ 90	≥ 90	≥ 80	≥ 90	≥ 90	≥ 90	safe for plant growth	≥ 90	inhibition at 5 ppm [10]: ≥ 90%; pest or weed control at 5 ppm [11]: ≥ 90%; pest or weed control at 10 ppm [11]: ≥ 90%; pest or weed control at 5 ppm (black shank in potatoes): ≥ 90%; pest or weed control at 10 ppm (black shank in potatoes): ≥ 90%; inhibition at 1 ppm [12]: ≥ 90%; inhibition at 5 ppm [12]: ≥ 90%; inhibition at 1 ppm [13]: ≥ 90%; inhibition at 5 ppm [13]: ≥ 90%; pest or weed control at 5 ppm (bacterial blight in rice): ≥ 80%; pest or weed control at 10 ppm (bacterial blight in rice): ≥ 90%
O=C(OCCO)c1cn(C2CC2)c2cc(OCC(F)(F)F)ccc2c1=O [Compound 360]	≥ 80	≥ 90	≥ 90	≥ 90	≥ 80	≥ 90	≥ 80	≥ 90	≥ 80	≥ 90	≥ 80	≥ 90	≥ 90	≥ 90	≥ 80	≥ 90	≥ 80	≥ 90	safe for plant growth	≥ 80	inhibition at 5 ppm [10]: ≥ 90%; pest or weed control at 5 ppm [11]: ≥ 90%; pest or weed control at 10 ppm [11]: ≥ 90%; pest or weed control at 5 ppm (black shank in potatoes): ≥ 80%; pest or weed control at 10 ppm (black shank in potatoes): ≥ 90%; inhibition at 1 ppm [12]: ≥ 80%; inhibition at 5 ppm [12]: ≥ 90%; inhibition at 1 ppm [13]: ≥ 80%; inhibition at 5 ppm [13]: ≥ 90%; pest or weed control at 5 ppm (bacterial blight in rice): ≥ 80%; pest or weed control at 10 ppm (bacterial blight in rice): ≥ 90%
